Source: patent US12043602B2, “Fendiline derivatives” (The Board of Regents of the University of Texas System, priority 2019, dated 2024)
“Also recorded” adds a separate entry of the source. Like-named read-outs stand apart in the source and are kept apart here.

Columns and labels:
[1] = test system: MOH (Mut) pancreatic tumor cells; assay: CyQUANT proliferation assay; assay type: cell-based
Experimental: (§1) Madine Darby Canine Kidney epithelial cells (MDCK) stably co-expressing mGFP-tagged full length oncogenic mutant K-Ras (GFP—K-RASG12V) or mGFP-LactC2 (peptide probe for phosphatidylserine) and mCherry-tagged to the amino acids 179-189 of H-RasC181S, C184S (mCherry-CAAX, localizes primarily to endomembranes) were grown in DMEM-high glucose/sodium pyruvate/10% FBS. The medium was supplemented with 1× Penicillin/Streptomycin for fluorescence microscopy assays, to avoid any microbial contamination from the test compounds added. KLE and Hec50 cells were maintained in DMEM-F-12 medium supplemented with 10% FBS. Hec-1A and Hec-1B cells were grown in McCoy's 5a medium supplemented with 10% FBS. ESS-1 cells were grown in RPMI 1640 medium supplemented with 20% FBS. MPanc96 cells were grown in DMEM supplemented with 10% FBS, MiaPaCa-2 cells in DMEM supplemented with 10% FBS and 2.5% horse serum and all other cell lines were grown in RPMI 1640 supplemented with 10% FBS. All cancer cell media were supplemented with ×Penicillin/Streptomycin. All cell lines were grown at 37° C. with 5% CO2.
(§2) Cells were seeded in 96-well plates. After 24 h, fresh growth medium supplemented with 0.1% vehicle (DMSO), or various concentrations of drugs was added and cells were grown for 72 h. Cell numbers were quantified using the CyQUANT® Cell Proliferation Assay Kit (Molecular Probes, Life Technologies), according to the manufacturer's protocol. Fluorescence measurement was used as a measure of live cell number.

[2] = test system: ESS-1 (WT) endometrial tumor cells; assay: CyQUANT proliferation assay; assay type: cell-based; parameters: key: NE—Not efficacious; details: 72 h
Experimental: as §1, §2

[3] = test system: KLE (WT) endometrial tumor cells; assay: CyQUANT proliferation assay; assay type: cell-based; parameters: key: NE—Not efficacious; details: 72 h
Experimental: as §1, §2

[4] = test system: MiaPaCa-2 tumors; assay: In vivo tumor growth assay (xenograft); parameters: species or system nu/nu mice; details: for growth of MiaPaCa-2 xenografts: intraperitoneally, once daily 5 days on / 2 days off, doses 1-12.5 mg/kg; for minimum effective dose on tumor growth relative to fendiline: MiaPaCa2 xenografts in nude mice
Experimental: In Vivo Tumor Growth Assay. All animal studies were performed under an Institutional Animal Care and Use Committee (IACUC) approved animal protocol (AWC-15-0101), in accordance with the National Institutes of Health Guide for the Care and Use of Laboratory Animals. Early passage MiaPaCa-2 cells were harvested, and 2×10^6 cells were implanted into the right flanks of female nu/nu mice. The animals were randomized into control and treated groups (10 mice per group). Tumor volume (V) was measured with an external caliper every 3-4 days and it was calculated as V=0.52 (length×width2). Compound treatment was initiated when the tumor sizes reached 100 mm3. Compounds (12.5 mg/kg) were injected daily intraperitoneally for 5 days, with 2 days of no treatment in between. All treatments were continued until any of the subcutaneous tumors reached 1500 mm3 in volume, when all the animals were sacrificed, and the tumors removed.
Early passage BxPC-3 or MIAPaCa-2 cells were harvested, and 2-3X106 cells were implanted into the right flanks of nu/nu mice. The animals were randomized into control and treated groups (10 mice per group). Tumor volume (V) was measured with an external caliper every 3-4 days and it was calculated as V=0.52 (length×width2). Drug treatment was initiated 4 days after tumor implantation. Drugs were injected daily intraperitoneally (at doses indicated) for 5 days, with 2 days of no treatment in between. All treatments were continued until any of the subcutaneous tumors reached 1500 mm3 in volume or for 6 weeks (whichever was first), when all the animals were sacrificed and the tumors removed.
Next the effect of the selected PMLIs on the growth of oncogenic KRAS expressing MiaPaCa-2 cells implanted subcutaneously into the flanks of nu/nu immunosuppressed mice was determined. […] The animals were randomized into control and PMLI-treated groups (10 mice per group). Treatment was initiated when the tumors reached a mean volume of 100 mm^3. PMLIs were tested at 12.5, 7.5, 5, 2.5 and 1 mg/kg doses, administered once daily intraperitoneally for 5 days, with 2 days of no treatment in between for the duration of the experiment. […] There was no observed toxicity detected in any of the compound-treated groups during the experiment and, accordingly, there was no significant difference in the body weight of the animals in the different groups.

[5] = test system: blood vessels in tumors; assay: Blood vessel lumen area in tumor sections; parameters: species or system nu/nu mice; details: mouse, in vivo
Experimental: FIG. 8A-E. (A) Nu/nu mice implanted with MiaPaCa-2 tumors were treated with vehicle (DMSO) or compounds intraperitoneally and tumor sizes were measured with an external caliper every 3-4 days. (B) Tumor sections were stained with GFP-Lys. (C) Tumor sections were stained with antibodies against pERK. (D) Tumor sections were stained with cleaved caspase 3. (E) Blood vessel lumen area was also measured in tumor sections.
Immunohistochemistry. 4-5 μm sections were deparaffinized, rehydrated, and treated with 10 mM sodium citrate for heat induced antigen retrieval. After quenching endogenous peroxidase, and blocking with 2.5% normal goat serum (Vector Laboratories S-1012), sections were incubated overnight at 4° C. with primary antibody diluted in blocking solution as recommended by manufacturer (Cell Signaling). Controls were incubated with diluted normal rabbit IgG. After incubation with biotinylated secondary antibody diluted 1:250 in blocking serum for 45 min at rt, sections were incubated with VECTASTAIN ABC reagent for 30 min, and for development of the DAB chromogen the Quanto substrate was used. Slides were counter stained with Hematoxylin. Five fields per stained section per xenograft were photographed at 10X. CC3+ and pERK+ area and number of events per field were quantitated via automated image analysis (NIS Elements BR analysis ver. 4.13.04). Vessel number and lumen area per field used the same software with manual settings to trace vessel wall contours. Antibodies used are as follows: CC3: Cell Signaling #9661, use at 1:300. (Cleaved Caspase-3 (Asp175) Antibody. Rabbit polyclonal. pERK: Cell Signaling #4370: Phospho-p44/42 MAPK (Erk1/2) (Thr202/Tyr204) (D13.14.4E) XP Rabbit mAB. CD31 (PECAM-1) (D8V9E) XP Rabbit mAB (Cell signal # (Cell signal #77699). Normal rabbit IgG: Santa Cruz #sc-3888. Concentration is 50 μg/mL or 50 ng/μL. Prepared with 5 μg in 200 μL blocking solution. Goat Anti-Rabbit IgG Biotin Conjugate: Calbiochem #OS03B, Concentration=1.2 mg/mL. Recommended to be used for IHC at 1 μg/mL.

[6] = test system: HPAC (Mut) pancreatic tumor cells; assay: CyQUANT proliferation assay; assay type: cell-based; details: Homo sapiens, HPAC, 72 h
Experimental: as §1, §2

[7] = test system: MDCK cells co-expressing GFP-K-RASG12V and mCherry-CAAX; assay: Cytotoxicity in mislocalization screen (death of all cells in well); details: drug caused death of all cells in well at 30 μM
[8] = 72 h, read-out: IC50 proliferation MOH (Mut)
[9] = Table 11, pancreatic, read-out: IC50 (μM) MOH (Mut)

Structure (SMILES) | IC50 [1, 8] | IC50 [1, 9] | IC50 proliferation ESS-1 (WT) [2] | IC50 proliferation KLE (WT) [3] | MiaPaCa2 xenograft size ([4]; 12.5 mg/kg intraperitoneally, days 28, 32 and 35) | growth of MiaPaCa-2 xenografts [4] | blood vessel dilation / vasodilatory effect in tumors [5] | IC50 [6] | minimum effective dose on tumor growth relative to fendiline [4] | Cytotoxic at 30 μM [7] | tumor growth at 1 mg/kg ([4]; 1 mg/kg intraperitoneally) | growth of MiaPaCa-2 xenografts ([4]; listed as 12h) | blood vessel dilation / vasodilatory effect in tumors ([5]; listed as 12h) | growth of MiaPaCa-2 xenografts ([4]; listed as 22) | blood vessel dilation / vasodilatory effect in tumors ([5]; listed as 22)
CC(NCCC(c1ccccc1)c1ccccc1)c1ccccc1 (stereo not drawn) [Fendiline] | 11.1 µM | 11.1 µM | NE | NE | significantly smaller | inhibits the growth | dilated |  |  |  |  |  |  |  | 
COc1ccc([C@@H](C)N(CC=C(c2ccccc2)c2ccccc2)CCN2CCN(C)CC2)cc1 [NY0244, (R)-N-(1-(4-methoxyphenyl)ethyl)-N-(2-(4-methylpiperazin-1-yl)ethyl)-3,3-diphenylprop-2-en-1-amine] | 3.67 µM | 3.7 µM | NE | NE |  |  |  | 5.55 µM | more potent than fendiline | Yes |  |  |  |  | 
COc1ccc([C@@H](C)N(CC=C(c2ccccc2)c2ccccc2)CCN2CCCC2)cc1 [NY0331, (R)-N-(1-(4-methoxyphenyl)ethyl)-3,3-diphenyl-N-(2-(pyrrolidin-1-yl)ethyl)prop-2-en-1-amine] | 3.55 µM | 4 µM |  |  |  |  |  | 5.15 µM | more potent than fendiline | Yes | significantly inhibited tumor growth | suppressed; also recorded: strikingly decreased the rate of growth | no vasodilatory effects; also recorded: not changed |  | 
COc1ccc([C@@H](C)N(CC=C(c2ccccc2)c2ccccc2)CCCN2CCN(C)CC2)cc1 [NY0335, (R)-N-(1-(4-methoxyphenyl)ethyl)-N-(3-(4-methylpiperazin-1-yl)propyl)-3,3-diphenylprop-2-en-1-amine] | 3.77 µM | 3.8 µM | NE | NE |  |  |  | 5.81 µM |  | Yes |  |  |  | suppressed; also recorded: strikingly decreased the rate of growth | no vasodilatory effects; also recorded: not changed
